# According to patent US8247211B2, “Glycopeptide antibiotics” (American Cyanamid Company, priority 2001, dated 2012):
# Legend:
# Enterococcus sp. = assay: In vitro antibacterial evaluation: minimum inhibitory concentration (MIC), broth dilution method; assay type: cell-based; settings: 18 hours at 35° C.
# How it was run: (§1)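 MIC by broth dilution in Mueller-Hinton II medium following NCCLS M7-A2. Inoculum was 5×10^5 CFU/mL and antibiotic was tested over 64-0.06 μg/mL. Gram-positive panel included clinical isolates resistant to methicillin, penicillin and/or vancomycin.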
# Escherichia coli = assay: as above; assay type: cell-based; settings: 18 hours at 35° C.
# How it was run: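 Test strains, among them recent clinical isolates carrying methicillin, penicillin and/or vancomycin resistance, were inoculated at 5×10^5 CFU/mL. A broth dilution series spanning 64-0.06 μg/mL in Muller-Hinton II […] (NCCLS M7-A2) defined the MIC as the lowest growth-inhibiting concentration.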
# Staphylococcus sp. = assay: as above; assay type: cell-based
# How it was run: as §1
# Streptococcus sp. = assay: as above; assay type: cell-based; settings: 18 hours at 35° C.
# How it was run: as §1
# [1] = tested on: Staphylococcus aureus-SMITH (GC 4543); assay: Acute lethal infection in mice (ED50); assay type: in vivo; settings: female CD-1 mice, intraperitoneal challenge, intravenous dose 30 min. after infection, 7 day survival ratios
# How it was run: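 ED50 derived from pooled 7-day survival in three separate experiments, five mice per dose level. Single intravenous dose 30 min after intraperitoneal infection of female CD-1 mice with enough bacteria to kill untreated animals in 24-48 h.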
# [2] = Anatomic pathology (heart and kidney histopathology) in mice; assay type: in vivo, CD-1 mice; settings: 20 mg/kg intravenously daily for 9 days, microscopic histopathology on day 10
# How it was run: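 Histopathology on H&E-stained, paraffin-embedded sections, subjectively scored (slight, mild, moderate, marked, severe) relative to untreated controls. Dosing: glycopeptide antibiotics 20 mg/kg intravenously once daily ×9 days in 20-day-old CD-1 mice, n=5 per group including vehicle.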
# [3] = Enterococcus faecalis (ATCC 29212)
# [4] = Enterococcus faecalis (GC 2242)
# [5] = Enterococcus faecalis (GC 2691)
# [6] = Enterococcus faecalis (GC 3059)
# [7] = Enterococcus faecalis (GC 4552)
# [8] = Enterococcus faecalis (GC 4553)
# [9] = Enterococcus faecalis (GC 4554)
# [10] = Enterococcus faecalis (GC 6189)
# [11] = broth dilution, inoculum 5×10^5 CFU/mL
# [12] = Streptococcus agalactiae (GC 4564)
# [13] = Streptococcus pneumoniae (ATCC 6301)
# [14] = Streptococcus pneumoniae (GC 1894)
# [15] = Streptococcus pneumoniae (GC 4565)
# [16] = Streptococcus pyogenes (GC 4563)
smiles,measurement,setting,value
"CC(C1CCCCC1)C1NC(=O)CNC(=O)C(CO)NC(=O)C(C(O)C2CNC(=N)N2C2OC(CO)C(O)C(O)C2O)NC(=O)C(C(O)C2CNC(=N)N2)NC(=O)C(Cc2ccc(OC3OC(CO)C(OC4OC5COC6(OC5C(O)C4O)C4CC5CC(C4)CC6C5)C(O)C3O)cc2)NC1=O (stereo not shown) [Example 221, Cyclo[3-cyclohexyl-2-aminobutanoyl-O-[4-O-[4,6-O-(2-adamantylidene)hexopyranosyl]hexopyranosyl]tyrosyl-3-(2-iminoimidazolidin-4-yl)seryl-3-(3-hexopyranosyl-2-iminoimidazolidin-4-yl)serylserylglycyl]]",MIC Enterococcus avium (GC 4558),Enterococcus sp.; Enterococcus avium (GC 4558),2 µg/mL
same,MIC Enterococcus faecalis (ATCC 29212),Enterococcus sp.; [3],2 µg/mL
same,MIC Enterococcus faecalis (GC 2242),Enterococcus sp.; [4],2 µg/mL
same,MIC Enterococcus faecalis (GC 2691),Enterococcus sp.; [5],2 µg/mL
same,MIC Enterococcus faecalis (GC 3059),Enterococcus sp.; [6],1 µg/mL
same,MIC Enterococcus faecalis (GC 4552),Enterococcus sp.; [7],2 µg/mL
same,MIC Enterococcus faecalis (GC 4553),Enterococcus sp.; [8],2 µg/mL
same,MIC Enterococcus faecalis (GC 4554),Enterococcus sp.; [9],2 µg/mL
same,MIC Enterococcus faecalis (GC 6189),Enterococcus sp.; [10],1 µg/mL
same,MIC Enterococcus faecium (GC 2243),Enterococcus sp.; Enterococcus faecium (GC 2243),2 µg/mL
same,MIC Enterococcus faecium (GC 4556),Enterococcus sp.; Enterococcus faecium (GC 4556),2 µg/mL
same,MIC Enterococcus faecium (GC 4557),Enterococcus sp.; Enterococcus faecium (GC 4557),1 µg/mL
same,MIC Enterococcus avium (GC 4558),Enterococcus sp.; [11],2 µg/mL
same,MIC Enterococcus faecalis (ATCC 29212),Enterococcus sp.; [11],2 µg/mL
same,MIC Enterococcus faecalis (GC 2242),Enterococcus sp.; [11],2 µg/mL
same,MIC Enterococcus faecalis (GC 2691),Enterococcus sp.; [11],2 µg/mL
same,MIC Enterococcus faecalis (GC 3059),Enterococcus sp.; [11],1 µg/mL
same,MIC Enterococcus faecalis (GC 4552),Enterococcus sp.; [11],2 µg/mL
same,MIC Enterococcus faecalis (GC 4553),Enterococcus sp.; [11],2 µg/mL
same,MIC Enterococcus faecalis (GC 4554),Enterococcus sp.; [11],2 µg/mL
same,MIC Enterococcus faecalis (GC 6189),Enterococcus sp.; [11],1 µg/mL
same,MIC Enterococcus faecium (GC 2243),Enterococcus sp.; [11],2 µg/mL
same,MIC Enterococcus faecium (GC 4556),Enterococcus sp.; [11],2 µg/mL
same,MIC Enterococcus faecium (GC 4557),Enterococcus sp.; [11],1 µg/mL
same,MIC Escherichia coli (ATCC 25922),Escherichia coli,64 µg/mL
same,MIC Escherichia coli (GC 4559),Escherichia coli,32 µg/mL
same,MIC Escherichia coli (GC 4560),Escherichia coli,2 µg/mL
same,MIC Staphylococcus aureus (ATCC 29213),Staphylococcus sp.; strain ATCC 29213,1 µg/mL
same,MIC Staphylococcus aureus (GC 1131),Staphylococcus sp.; strain GC 1131,2 µg/mL
same,MIC Staphylococcus aureus (GC 3051),Staphylococcus sp.; strain GC 3051,2 µg/mL
same,MIC Staphylococcus aureus (GC 3053),Staphylococcus sp.; strain GC 3053,1 µg/mL
same,MIC Staphylococcus aureus (GC 4541),Staphylococcus sp.; strain GC 4541,2 µg/mL
same,MIC Staphylococcus aureus (GC 4542),Staphylococcus sp.; strain GC 4542,2 µg/mL
same,MIC Staphylococcus aureus-SMITH (GC 4543),Staphylococcus sp.; strain GC 4543,2 µg/mL
same,MIC Staphylococcus aureus (GC 4544),Staphylococcus sp.; strain GC 4544,2 µg/mL
same,MIC Staphylococcus aureus (GC 4545),Staphylococcus sp.; strain GC 4545,2 µg/mL
same,MIC Staphylococcus haemolyticus (GC 4546),Staphylococcus sp.; strain GC 4546,2 µg/mL
same,MIC Coagulase Negative Staphylococcus (GC 4547),Staphylococcus sp.; strain GC 4547,2 µg/mL
same,MIC Coagulase Negative Staphylococcus (GC 4548),Staphylococcus sp.; strain GC 4548,1 µg/mL
same,MIC Coagulase Negative Staphylococcus (GC 4549),Staphylococcus sp.; strain GC 4549,1 µg/mL
same,MIC Coagulase Negative Staphylococcus (GC 4551),Staphylococcus sp.; strain GC 4551,2 µg/mL
same,MIC Streptococcus agalactiae (GC 4564),Streptococcus sp.; [12],<0.12 µg/mL
same,MIC Streptococcus pneumoniae (ATCC 6301),Streptococcus sp.; [13],<0.12 µg/mL
same,MIC Streptococcus pneumoniae (GC 1894),Streptococcus sp.; [14],<0.12 µg/mL
same,MIC Streptococcus pneumoniae (GC 4565),Streptococcus sp.; [15],<0.12 µg/mL
same,MIC Streptococcus pyogenes (GC 4563),Streptococcus sp.; [16],<0.12 µg/mL
same,MIC Streptococcus agalactiae (GC 4564),Streptococcus sp.; [11],<0.12 µg/mL
same,MIC Streptococcus pneumoniae (ATCC 6301),Streptococcus sp.; [11],<0.12 µg/mL
same,MIC Streptococcus pneumoniae (GC 1894),Streptococcus sp.; [11],<0.12 µg/mL
same,MIC Streptococcus pneumoniae (GC 4565),Streptococcus sp.; [11],<0.12 µg/mL
same,MIC Streptococcus pyogenes (GC 4563),Streptococcus sp.; [11],<0.12 µg/mL
same,"median effective dose (ED50), Staphylococcus aureus-SMITH (GC 4543)",[1],0.03 mg/kg
same,"Anatomical Pathology (Day 10), Heart",[2],0
same,"Anatomical Pathology (Day 10), Kidney",[2],0
"COc1ccc2cc(COCC3OC(OC4C(CO)OC(Oc5ccc(CC6NC(=O)C(C(C)c7ccccc7)NC(=O)CNC(=O)C(CO)NC(=O)C(C(O)C7CNC(=N)N7C7OC(CO)C(O)C(O)C7O)NC(=O)C(C(O)C7CNC(=N)N7)NC6=O)cc5)C(O)C4O)C(O)C(O)C3O)ccc2c1 (stereo not drawn) [Example 230, Cyclo[glycyl-β-methylphenylalanyl-O-[4-O-[6-O-[(6-methoxy-2-naphthyl)methyl]hexopyranosyl]hexopyranosyl]tyrosyl-3-(2-iminoimidazolidin-4-yl)seryl-3-(3-hexopyranosyl-2-iminoimidazolidin-4-yl)serylseryl]]",MIC Enterococcus avium (GC 4558),Enterococcus sp.; Enterococcus avium (GC 4558),8 µg/mL
same,MIC Enterococcus faecalis (ATCC 29212),Enterococcus sp.; [3],8 µg/mL
same,MIC Enterococcus faecalis (GC 2242),Enterococcus sp.; [4],8 µg/mL
same,MIC Enterococcus faecalis (GC 2691),Enterococcus sp.; [5],4 µg/mL
same,MIC Enterococcus faecalis (GC 3059),Enterococcus sp.; [6],8 µg/mL
same,MIC Enterococcus faecalis (GC 4552),Enterococcus sp.; [7],8 µg/mL
same,MIC Enterococcus faecalis (GC 4553),Enterococcus sp.; [8],8 µg/mL
same,MIC Enterococcus faecalis (GC 4554),Enterococcus sp.; [9],8 µg/mL
same,MIC Enterococcus faecalis (GC 6189),Enterococcus sp.; [10],4 µg/mL
same,MIC Enterococcus faecium (GC 2243),Enterococcus sp.; Enterococcus faecium (GC 2243),8 µg/mL
same,MIC Enterococcus faecium (GC 4556),Enterococcus sp.; Enterococcus faecium (GC 4556),8 µg/mL
same,MIC Enterococcus faecium (GC 4557),Enterococcus sp.; Enterococcus faecium (GC 4557),2 µg/mL
same,MIC Enterococcus avium (GC 4558),Enterococcus sp.; [11],8 µg/mL
same,MIC Enterococcus faecalis (ATCC 29212),Enterococcus sp.; [11],8 µg/mL
same,MIC Enterococcus faecalis (GC 2242),Enterococcus sp.; [11],8 µg/mL
same,MIC Enterococcus faecalis (GC 2691),Enterococcus sp.; [11],4 µg/mL
same,MIC Enterococcus faecalis (GC 3059),Enterococcus sp.; [11],8 µg/mL
same,MIC Enterococcus faecalis (GC 4552),Enterococcus sp.; [11],8 µg/mL
same,MIC Enterococcus faecalis (GC 4553),Enterococcus sp.; [11],8 µg/mL
same,MIC Enterococcus faecalis (GC 4554),Enterococcus sp.; [11],8 µg/mL
same,MIC Enterococcus faecalis (GC 6189),Enterococcus sp.; [11],4 µg/mL
same,MIC Enterococcus faecium (GC 2243),Enterococcus sp.; [11],8 µg/mL
same,MIC Enterococcus faecium (GC 4556),Enterococcus sp.; [11],8 µg/mL
same,MIC Enterococcus faecium (GC 4557),Enterococcus sp.; [11],2 µg/mL
same,MIC Escherichia coli (ATCC 25922),Escherichia coli,64 µg/mL
same,MIC Escherichia coli (GC 4559),Escherichia coli,>64 µg/mL
same,MIC Escherichia coli (GC 4560),Escherichia coli,1 µg/mL
same,MIC Coagulase Negative Staphylococcus (GC 4547),"Staphylococcus sp.; Coagulase Negative Staphylococcus (GC 4547), 18 hours at 35° C.",1 µg/mL
same,MIC Coagulase Negative Staphylococcus (GC 4548),"Staphylococcus sp.; Coagulase Negative Staphylococcus (GC 4548), 18 hours at 35° C.",0.5 µg/mL
same,MIC Coagulase Negative Staphylococcus (GC 4549),"Staphylococcus sp.; Coagulase Negative Staphylococcus (GC 4549), 18 hours at 35° C.",1 µg/mL
same,MIC Coagulase Negative Staphylococcus (GC 4551),"Staphylococcus sp.; Coagulase Negative Staphylococcus (GC 4551), 18 hours at 35° C.",2 µg/mL
same,MIC Coagulase Negative Staphylococcus (GC 6257),"Staphylococcus sp.; Coagulase Negative Staphylococcus (GC 6257), 18 hours at 35° C.",0.5 µg/mL
same,MIC Staphylococcus aureus (ATCC 29213),"Staphylococcus sp.; Staphylococcus aureus (ATCC 29213), 18 hours at 35° C.",2 µg/mL
same,MIC Staphylococcus aureus (GC 1131),"Staphylococcus sp.; Staphylococcus aureus (GC 1131), 18 hours at 35° C.",2 µg/mL
same,MIC Staphylococcus aureus (GC 3051),"Staphylococcus sp.; Staphylococcus aureus (GC 3051), 18 hours at 35° C.",2 µg/mL
same,MIC Staphylococcus aureus (GC 3053),"Staphylococcus sp.; Staphylococcus aureus (GC 3053), 18 hours at 35° C.",2 µg/mL
same,MIC Staphylococcus aureus (GC 4541),"Staphylococcus sp.; Staphylococcus aureus (GC 4541), 18 hours at 35° C.",1 µg/mL
same,MIC Staphylococcus aureus (GC 4542),"Staphylococcus sp.; Staphylococcus aureus (GC 4542), 18 hours at 35° C.",2 µg/mL
same,MIC Staphylococcus aureus (GC 4544),"Staphylococcus sp.; Staphylococcus aureus (GC 4544), 18 hours at 35° C.",2 µg/mL
same,MIC Staphylococcus aureus (GC 4545),"Staphylococcus sp.; Staphylococcus aureus (GC 4545), 18 hours at 35° C.",1 µg/mL
same,MIC Staphylococcus aureus-SMITH (GC 4543),"Staphylococcus sp.; Staphylococcus aureus-SMITH (GC 4543), 18 hours at 35° C.",1 µg/mL
same,MIC Staphylococcus haemolyticus (GC 4546),"Staphylococcus sp.; Staphylococcus haemolyticus (GC 4546), 18 hours at 35° C.",1 µg/mL
same,MIC Streptococcus agalactiae (GC 4564),Streptococcus sp.; [12],0.5 µg/mL
same,MIC Streptococcus pneumoniae (ATCC 6301),Streptococcus sp.; [13],0.12 µg/mL
same,MIC Streptococcus pneumoniae (GC 1894),Streptococcus sp.; [14],<0.06 µg/mL
same,MIC Streptococcus pneumoniae (GC 4565),Streptococcus sp.; [15],0.12 µg/mL
same,MIC Streptococcus pyogenes (GC 4563),Streptococcus sp.; [16],0.25 µg/mL
same,MIC Streptococcus agalactiae (GC 4564),Streptococcus sp.; [11],0.5 µg/mL
same,MIC Streptococcus pneumoniae (ATCC 6301),Streptococcus sp.; [11],0.12 µg/mL
same,MIC Streptococcus pneumoniae (GC 1894),Streptococcus sp.; [11],<0.06 µg/mL
same,MIC Streptococcus pneumoniae (GC 4565),Streptococcus sp.; [11],0.12 µg/mL
same,MIC Streptococcus pyogenes (GC 4563),Streptococcus sp.; [11],0.25 µg/mL
same,"median effective dose (ED50), Staphylococcus aureus-SMITH (GC 4543)",[1],0.12 mg/kg
same,"Anatomical Pathology (Day 10), Heart",[2],0
same,"Anatomical Pathology (Day 10), Kidney",[2],+++
